Assays:
[1] = molecular target: Cyclin-dependent kinase 4/cyclin D1 (Homo sapiens) (UniProt P11802+P24385); test: Inhibition of full length wild type human CDK4-cyclinD1 expressed in mammalian system assessed as enzyme activity at 1 uM relative to control; design: scale not given: the % may be the effect or the level left
[2] = molecular target: Wee1-like protein kinase (Homo sapiens) (UniProt P30291); test: Inhibition of partial length wild type human WEE1 expressed in bacterial system assessed as enzyme activity at 1 uM relative to control; design: scale not given: the % may be the effect or the level left
[3] = molecular target: Ephrin type-A receptor 4 (Homo sapiens) (UniProt P54764); test: Inhibition of partial length wild type human EPHA4 expressed in bacterial system assessed as enzyme activity at 1 uM relative to control; design: scale not given: the % may be the effect or the level left
[4] = molecular target: Rho-associated protein kinase 2 (Homo sapiens) (UniProt O75116); test: Inhibition of partial length wild type human ROCK2 expressed in mammalian system assessed as enzyme activity at 1 uM relative to control; design: scale not given: the % may be the effect or the level left
[5] = molecular target: Serine/threonine-protein kinase B-raf (Homo sapiens, UniProt P15056, V600E); test: Inhibition of B-Raf V600E mutant in human A375 cells assessed as ERK phosphorylation preincubated for 1 hr by Western blot method; assay type: cell-based, A-375
[6] = molecular target: Receptor-type tyrosine-protein kinase FLT3 (Homo sapiens) (UniProt P36888); test: Inhibition of partial length wild type human FLT3 expressed in bacterial system assessed as enzyme activity at 1 uM relative to control; design: scale not given: the % may be the effect or the level left
[7] = molecular target: Casein kinase II subunit alpha (Homo sapiens) (UniProt P68400); test: Inhibition of full length wild type human CSNK2A1 expressed in mammalian system assessed as enzyme activity at 1 uM relative to control; design: scale not given: the % may be the effect or the level left
[8] = molecular target: Insulin-like growth factor 1 receptor (Homo sapiens) (UniProt P08069); test: Inhibition of partial length wild type human IGF1R expressed in bacterial system assessed as enzyme activity at 1 uM relative to control; design: scale not given: the % may be the effect or the level left
Sequence of Insulin-like growth factor 1 receptor (Homo sapiens) (P08069 31-736 limits assumed): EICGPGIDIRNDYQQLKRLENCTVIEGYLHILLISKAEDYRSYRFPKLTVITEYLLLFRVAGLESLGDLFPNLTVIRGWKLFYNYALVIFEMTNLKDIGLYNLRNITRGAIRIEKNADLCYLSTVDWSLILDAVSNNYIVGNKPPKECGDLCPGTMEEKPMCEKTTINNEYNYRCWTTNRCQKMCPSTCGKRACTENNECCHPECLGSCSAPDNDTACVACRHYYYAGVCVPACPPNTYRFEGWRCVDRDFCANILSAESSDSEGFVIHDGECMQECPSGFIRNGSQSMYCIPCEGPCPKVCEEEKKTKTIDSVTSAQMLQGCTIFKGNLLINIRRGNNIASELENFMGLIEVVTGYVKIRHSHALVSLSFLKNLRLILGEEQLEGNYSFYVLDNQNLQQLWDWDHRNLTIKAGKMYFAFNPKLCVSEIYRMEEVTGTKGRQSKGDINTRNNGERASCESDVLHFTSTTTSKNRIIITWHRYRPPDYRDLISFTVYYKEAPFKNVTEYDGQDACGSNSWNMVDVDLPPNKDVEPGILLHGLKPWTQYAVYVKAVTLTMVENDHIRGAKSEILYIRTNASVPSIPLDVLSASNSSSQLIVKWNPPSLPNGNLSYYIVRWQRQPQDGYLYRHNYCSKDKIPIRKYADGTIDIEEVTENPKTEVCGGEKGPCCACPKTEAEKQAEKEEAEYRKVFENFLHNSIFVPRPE
Sequence of Insulin-like growth factor 1 receptor (Homo sapiens) (P08069 741-1367 limits assumed): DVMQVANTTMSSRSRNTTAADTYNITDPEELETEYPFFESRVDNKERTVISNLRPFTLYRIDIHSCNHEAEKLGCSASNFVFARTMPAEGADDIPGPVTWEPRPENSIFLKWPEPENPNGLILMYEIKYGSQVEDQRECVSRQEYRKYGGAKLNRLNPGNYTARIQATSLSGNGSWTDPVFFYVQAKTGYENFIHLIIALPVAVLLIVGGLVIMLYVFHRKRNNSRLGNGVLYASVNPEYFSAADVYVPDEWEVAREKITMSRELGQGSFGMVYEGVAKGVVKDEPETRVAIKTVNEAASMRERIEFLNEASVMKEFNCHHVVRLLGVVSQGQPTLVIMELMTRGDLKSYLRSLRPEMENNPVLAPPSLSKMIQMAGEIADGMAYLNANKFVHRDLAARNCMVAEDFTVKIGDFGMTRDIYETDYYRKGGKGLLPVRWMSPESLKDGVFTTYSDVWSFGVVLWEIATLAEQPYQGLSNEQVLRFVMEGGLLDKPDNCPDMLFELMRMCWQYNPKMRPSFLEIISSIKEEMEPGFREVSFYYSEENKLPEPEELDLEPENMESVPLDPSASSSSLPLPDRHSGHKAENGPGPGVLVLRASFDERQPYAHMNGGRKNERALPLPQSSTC

Sequence of Rho-associated protein kinase 2 (Homo sapiens) (O75116 whole entry, looked up): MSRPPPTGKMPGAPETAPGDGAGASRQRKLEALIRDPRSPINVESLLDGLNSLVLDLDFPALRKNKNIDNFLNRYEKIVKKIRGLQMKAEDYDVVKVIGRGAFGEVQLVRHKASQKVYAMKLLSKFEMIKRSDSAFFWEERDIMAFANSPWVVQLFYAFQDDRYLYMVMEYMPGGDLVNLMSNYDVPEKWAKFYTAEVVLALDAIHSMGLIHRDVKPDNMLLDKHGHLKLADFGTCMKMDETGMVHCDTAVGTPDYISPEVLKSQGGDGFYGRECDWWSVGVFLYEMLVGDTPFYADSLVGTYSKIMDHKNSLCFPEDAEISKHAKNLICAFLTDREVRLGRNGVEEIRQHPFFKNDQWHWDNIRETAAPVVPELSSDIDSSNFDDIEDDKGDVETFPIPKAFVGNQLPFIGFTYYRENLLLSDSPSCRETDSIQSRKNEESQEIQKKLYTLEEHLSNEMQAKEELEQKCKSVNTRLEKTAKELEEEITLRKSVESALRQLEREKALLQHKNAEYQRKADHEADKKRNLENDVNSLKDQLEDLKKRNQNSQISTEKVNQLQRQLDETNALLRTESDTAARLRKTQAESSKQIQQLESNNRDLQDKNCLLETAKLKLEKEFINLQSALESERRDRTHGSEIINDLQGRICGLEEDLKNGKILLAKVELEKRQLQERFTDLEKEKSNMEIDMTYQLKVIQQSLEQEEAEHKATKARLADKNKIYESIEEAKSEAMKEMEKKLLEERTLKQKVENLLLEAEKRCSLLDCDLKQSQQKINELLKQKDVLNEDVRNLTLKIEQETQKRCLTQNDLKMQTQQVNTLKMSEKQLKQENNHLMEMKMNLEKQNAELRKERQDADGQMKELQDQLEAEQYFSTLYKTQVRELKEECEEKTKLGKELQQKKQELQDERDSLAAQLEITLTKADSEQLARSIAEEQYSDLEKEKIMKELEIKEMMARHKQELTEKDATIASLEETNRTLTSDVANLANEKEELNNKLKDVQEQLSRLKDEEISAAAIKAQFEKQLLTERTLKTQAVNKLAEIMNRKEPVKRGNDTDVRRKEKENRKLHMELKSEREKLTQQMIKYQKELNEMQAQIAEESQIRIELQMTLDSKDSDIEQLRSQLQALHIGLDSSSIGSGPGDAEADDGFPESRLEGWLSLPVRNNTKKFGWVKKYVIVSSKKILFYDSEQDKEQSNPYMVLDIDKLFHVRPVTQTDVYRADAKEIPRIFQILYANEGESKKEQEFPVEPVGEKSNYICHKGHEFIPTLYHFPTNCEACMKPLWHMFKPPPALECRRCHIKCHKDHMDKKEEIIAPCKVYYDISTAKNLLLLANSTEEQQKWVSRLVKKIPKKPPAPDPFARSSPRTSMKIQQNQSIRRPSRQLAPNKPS
Sequence of Serine/threonine-protein kinase B-raf (P15056 2-766 V600E limits assumed): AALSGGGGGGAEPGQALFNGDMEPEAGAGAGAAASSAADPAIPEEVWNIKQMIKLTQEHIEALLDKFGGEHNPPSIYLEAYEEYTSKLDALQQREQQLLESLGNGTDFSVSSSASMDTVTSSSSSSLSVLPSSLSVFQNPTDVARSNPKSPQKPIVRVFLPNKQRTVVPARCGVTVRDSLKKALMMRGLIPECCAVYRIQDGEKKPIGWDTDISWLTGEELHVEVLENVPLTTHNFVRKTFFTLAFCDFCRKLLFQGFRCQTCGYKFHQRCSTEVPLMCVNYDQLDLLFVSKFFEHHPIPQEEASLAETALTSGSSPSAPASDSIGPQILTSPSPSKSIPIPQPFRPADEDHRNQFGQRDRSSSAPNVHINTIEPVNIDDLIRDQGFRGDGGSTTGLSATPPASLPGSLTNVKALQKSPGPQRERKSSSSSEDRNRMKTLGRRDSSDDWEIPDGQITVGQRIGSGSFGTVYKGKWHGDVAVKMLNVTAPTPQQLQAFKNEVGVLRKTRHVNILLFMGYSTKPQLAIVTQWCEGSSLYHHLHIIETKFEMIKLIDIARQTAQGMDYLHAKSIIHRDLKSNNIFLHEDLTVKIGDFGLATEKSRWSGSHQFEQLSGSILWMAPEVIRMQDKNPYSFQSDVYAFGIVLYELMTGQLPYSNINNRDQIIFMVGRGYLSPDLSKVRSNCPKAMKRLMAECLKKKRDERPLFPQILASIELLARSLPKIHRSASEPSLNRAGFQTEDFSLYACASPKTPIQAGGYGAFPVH
Sequence of Wee1-like protein kinase (Homo sapiens) (P30291 whole entry, looked up): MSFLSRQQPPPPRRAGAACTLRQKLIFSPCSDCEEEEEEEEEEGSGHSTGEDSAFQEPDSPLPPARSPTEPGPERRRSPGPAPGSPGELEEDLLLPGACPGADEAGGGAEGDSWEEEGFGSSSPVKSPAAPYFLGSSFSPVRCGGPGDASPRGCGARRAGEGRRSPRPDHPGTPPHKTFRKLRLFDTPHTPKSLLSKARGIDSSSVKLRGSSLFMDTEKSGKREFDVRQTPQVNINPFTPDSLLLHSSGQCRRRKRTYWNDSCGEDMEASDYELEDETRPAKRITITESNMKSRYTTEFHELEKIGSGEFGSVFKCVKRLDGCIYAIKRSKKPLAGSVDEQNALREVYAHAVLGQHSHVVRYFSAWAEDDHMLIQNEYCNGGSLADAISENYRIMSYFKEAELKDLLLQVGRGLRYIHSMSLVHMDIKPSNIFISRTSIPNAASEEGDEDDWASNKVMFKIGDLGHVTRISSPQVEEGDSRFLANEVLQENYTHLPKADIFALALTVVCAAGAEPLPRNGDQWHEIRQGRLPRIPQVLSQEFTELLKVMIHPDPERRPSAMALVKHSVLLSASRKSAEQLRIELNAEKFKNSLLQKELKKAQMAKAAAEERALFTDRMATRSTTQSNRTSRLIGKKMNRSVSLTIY
Sequence of Casein kinase II subunit alpha (Homo sapiens) (P68400 whole entry, looked up): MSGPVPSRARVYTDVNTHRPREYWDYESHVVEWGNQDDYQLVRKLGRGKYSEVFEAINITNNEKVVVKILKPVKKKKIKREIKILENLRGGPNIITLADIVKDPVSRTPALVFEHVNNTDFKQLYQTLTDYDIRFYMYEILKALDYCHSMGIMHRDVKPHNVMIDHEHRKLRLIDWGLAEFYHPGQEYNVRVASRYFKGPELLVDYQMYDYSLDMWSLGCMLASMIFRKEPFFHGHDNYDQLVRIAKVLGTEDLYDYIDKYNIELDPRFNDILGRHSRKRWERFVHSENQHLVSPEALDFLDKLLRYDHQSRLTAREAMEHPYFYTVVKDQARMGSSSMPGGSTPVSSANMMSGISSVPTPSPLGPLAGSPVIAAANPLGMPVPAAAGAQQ

CN(C)S(=O)(=O)Nc1ccc(F)c(Nc2ncccc2-c2ncnc3[nH]cnc23)c1F
Activity [1]: 98%
Activity [2]: 90%
Activity [3]: 90%
Activity [4]: 92%
IC50 [5]: 54 nM
Activity [6]: 71%
Activity [7]: 64%
Activity [8]: 98%

From ChEMBL document CHEMBL3797029, “Purinylpyridinylamino-based DFG-in/αC-helix-out B-Raf inhibitors: Applying mutant versus wild-type B-Raf selectivity indices for compound profiling” (Bioorg Med Chem, 2016)
